# Laboratory results taken from ChEMBL document CHEMBL1156887, “Discovery of olodaterol, a novel inhaled beta2-adrenoceptor agonist with a 24 h bronchodilatory efficacy” (Bioorg Med Chem Lett, 2010).
# Key:
# [1] = Apparent permeability from apical to basolateral side in human Caco-2 cells; format: ADME, cell-based
# [2] = Oral bioavailability in rat; format: ADME, organism-based; conditions: in vivo
# [3] = Lipophilicity, log D at pH 7.4; format: physicochemical; conditions: buffer
# [4] = Apparent permeability from basolateral to apical side in human Caco-2 cells; format: ADME, cell-based
smiles,measurement,setting,value
COc1ccc(CC(C)(C)NC[C@H](O)c2cc(O)cc3c2OCC(=O)N3)cc1 [OLODATEROL],Papp A→B,[1],0.35 ×10⁻⁶ cm/s
same,bioavailability,[2],3%
same,logD,[3],1.2
same,Papp B→A,[4],9 ×10⁻⁶ cm/s
